# Laboratory results from patent US10653680B2, “Treatment of impulsivity-related disorders” (OXFORD UNIVERSITY INNOVATION LIMITED, priority 2016, dated 2020).
# Assays:
# [1] = tested on: healthy participants; test: Human study: subjective ratings (PANAS mood, side effect profile, LSEQ sleep, guess of treatment arm); assay type: in vivo
# Text: Twenty healthy participants (7 females, 13 males; mean age 25.1 years, range 20-38 years; mean BMI 22.7 kg/m^2, range 18.7-30.0 kg/m^2) were included in the study after giving full informed written consent.
# Exclusion criteria included a history of any DSM-5 Axis I psychiatric disorder (determined using the […] for Diagnostic and Statistical Manual for Mental Health Disorders), significant current medical condition, current regular medication (apart from the contraceptive pill), pregnancy or lactation, heavy smoking (defined as more than 5 cigarettes per day) and having taken part in another study involving an investigational drug within the previous 3 months. Participants were asked to maintain stable exercise and diet as well as refrain from alcohol during study participation.
# Ebselen capsules and identical matching placebo (containing microcrystalline cellulose) were purchased from Shasun Pharmaceuticals Ltd. Participants were tested twice (seven days apart) receiving on one occasion ebselen and, on the other, placebo in a randomised, double-blind, cross-over design. Ebselen was administered in 6×200 mg capsules in three doses given over two days. The order of receiving either the ebselen or the placebo was randomised.
# On the day before cognitive testing, participants took the first dose at 1 pm and the second dose at 10 pm. The final dose was taken around 3 hrs prior to cognitive testing. Participants were sent text message reminders a few minutes before they were due to take medication, and were asked to confirm receipt of the messages. The cognitive tasks were carried out immediately after a magnetic resonance spectroscopy study.
# On the screening visit, participants were assessed for baseline depression and anxiety symptoms with the Beck Depression Inventory (Beck et al.; Arch. Gen. Psychiatry; 1961, 4: 561-571) and the state measure of the State-Trait Anxiety Inventory (STAI) (Spielberger et al.; Manual for the State-Trait Anxiety Inventory, Consulting Psychologists Press, Palo Alto Calif., 1983), and for personality with the Eysenck Personality Questionnaire (Eysenck and Eysenck, Manual of the Eysenck Personality Questionnaire, London: Hodder & Stoughton, 1975). On the morning preceding psychological testing, the Leeds Sleep Evaluation Questionnaire (LSEQ) was completed within 30 minutes of waking (Parrot and Hindmarch, Psychopharmacology, 1980, 71, 173-179).
# Before cognitive testing, participants were asked to rate their mood using the Positive and Negative Affective Schedule (PANAS) (Watson et al.; J. Pers. Soc. Psychol., 1988, 54, 1063-1070), to complete a side effect profile using a 4-point rating scale and also to guess as to whether they had received ebselen or placebo on that randomization arm. […]
# [2] = tested on: rats; test: 5-CSRTT, stimulant (cocaine)-induced responding; assay type: in vivo, rats (males; Long Evans)
# Procedure: (§1) Testing was carried out in Vancouver (Canada) using rats (males; Long Evans from Charles River) which were given at least two weeks to acclimatise to the animal facility. They were housed in pairs on a 12 hour reverse light-dark cycle (lights off at 7 am). In the second week of acclimatisation, rats were handled briefly each day. […] For each task, there was then a habituation session to the operant boxes before training began.
# (§2) Ebselen, cocaine and 2,5-dimethoxy-4-iodoamphetamine (DOI) were obtained from Sigma Aldrich, and MDL 100,907 was obtained from Tocris. Ebselen was dissolved in 0.5M DMSO and made up to injection volume (8 ml/kg) using 4% cyclodextrin. Cocaine and DOI were dissolved in 0.9% saline. MDL 100,907 was dissolved in 0.9% saline and the pH was adjusted to 6.25 using 1M NaOH and 0.1M HCl.
# (§3) All data for the cognitive tasks are presented as mean+SEM change from baseline: • performance on drug day−performance on the previous day
# In experiments investigating the effect of ebselen on cocaine and DOI, data were analysed with a two-way ANOVA with ebselen and cocaine/DOI as between-subject factors. If an interaction was detected, this was further investigated using simple main effects analysis. All analyses were conducted using SPSS 22 with p<0.05 considered significant.
# To assess the effect of ebselen on stimulant-induced responding, ebselen (10 mg/kg) or vehicle was administered 1 hour prior to cocaine (15 mg/kg i.p.), which in turn was administered 10 minutes prior to testing. Treatments were administered using according to a Latin square design. The inter-trial interval for these sessions was 5 seconds. Two rats were excluded from the data due to increasing levels of omissions across all days of this portion of the study. The experiment was repeated using 0.03 mg/kg MDL 100,907 instead of ebselen.
# [3] = tested on: rats; test: Rodent Gambling Task (rGT); assay type: in vivo, rats (males; Long Evans)
# Procedure: as §1, §2, §3
# The data were analysed with repeated measures ANOVA with dose as a within-subject factor. Where appropriate, post-hoc analysis was performed using Student's paired t-test.
# The Latin square design (for both the 5-CSRTT and rGT experiments) was counterbalanced, based on performance in the last training day of each task. A one week wash-out period was given between drug-administration days. A baseline session was performed both the day before and the day after treatment to ensure stable off-drug performance.
# This was performed as described previously (Zeeb et al; Neuropsychopharmacology, 2009, 34(10), 2329-2343), and is illustrated schematically in FIG. 2. Twenty one rats were trained to respond in standard 5-CSRTT boxes. Once reliable responding was established, different reward contingencies were associated with four nose-poke apertures (the central aperture was not used in this task). In each case, the reward size and probability of outcome differed between the choices. When no reward was delivered, a fixed-length time-out was delivered. The length of this time-out was varied between choices, with the longest time-out being associated with the largest, least likely reward. […] On the other 20% of occasions, a 10 second time-out was initiated. Once stable performance was achieved, rats were administered ebselen (2, 5 and 10 mg/kg i.p.) or vehicle in a Latin square design.
# [4] = tested on: rats; settings: in rats; cited from earlier work
# [5] = tested on: humans; settings: at pharmaceutically effective dosages; clinical trials for ischemic stroke (Yamaguchi et al); cited from earlier work
compound,measurement,setting,value
"O=c1c2ccccc2[se]n1-c1ccccc1 [Ebselen, 2-phenyl-1,2-benzisoselenazol-3(2H)-one]",tolerability,"[1]; 20 healthy participants, 6x200 mg in three doses over two days, no participants dropped out",well tolerated
same,frequency of other side effects,[1]; ebselen and placebo treatment compared,low and comparable frequency of side effects
same,subjective measures of sleep (LSEQ),[1]; ebselen vs placebo,no significant differences
same,participants who reported feeling drowsy,"[1]; of 20 participants on ebselen treatment, none on placebo",Five
same,any other measure,[2]; ebselen 10 mg/kg / cocaine 15 mg/kg experiment,No effects
same,reversal of the cocaine effect on omissions,"[2]; ebselen 10 mg/kg before cocaine 15 mg/kg, p=0.463",not reversed
same,reversal of the cocaine effect on accuracy,"[2]; ebselen 10 mg/kg before cocaine 15 mg/kg, p=0.969, interaction p=0.278",not reversed
same,cocaine-induced premature responses,"[2]; ebselen 10 mg/kg i.p. 1 hour prior to cocaine 15 mg/kg i.p., p=0.023",reduced cocaine-induced premature responses
same,"number of premature responses, ebselen/cocaine vs vehicle/vehicle treatment","[2]; ebselen 10 mg/kg, cocaine 15 mg/kg i.p., p=0.909",did not differ
same,premature responses,"[3]; ebselen 2 mg/kg i.p. vs vehicle, p=0.052",decreased premature responses
same,response latency (increase in time to respond),"[3]; ebselen 2 mg/kg, paired t-test, p=0.056",trend
same,reward latency (time taken to collect rewards),"[3]; ebselen 2 mg/kg, p=0.024",significant increase
same,premature responses,"[3]; ebselen 5 mg/kg i.p. vs vehicle, p=0.077",decreased trend
same,response latency (increase in time to respond),"[3]; ebselen 5 mg/kg, paired t-test, p=0.028",significant
same,reward latency,"[3]; ebselen 5 mg/kg, p=0.069",trend increase
same,premature responses,"[3]; ebselen 10 mg/kg i.p. vs vehicle, p=0.028",decreased premature responses
same,response latency,"[3]; ebselen 10 mg/kg, paired t-test, p=0.246",no significant effect
same,reward latency (time taken to collect rewards),"[3]; ebselen 10 mg/kg, p=0.005",significant increase
same,reward latency,"[3]; ebselen 2, 5, 10 mg/kg i.p., overall ANOVA, p=0.062",no effect
same,response latency,"[3]; ebselen 2, 5, 10 mg/kg i.p., overall ANOVA, p=0.090",no effect
same,number of trials completed during the sessions,"[3]; ebselen 2, 5, 10 mg/kg i.p., p=0.546",no effect
same,choice behaviour,"[3]; ebselen 2, 5, 10 mg/kg i.p., p=0.596",no effect
same,premature responses,"[3]; ebselen 2, 5 and 10 mg/kg i.p. overall, p=0.088",overall trend to decreased premature responses
same,LD50 concentration,[4],greater than 1000 mg/kg
same,toxicity in humans,[5],sufficiently non-toxic
